ChEMBL document CHEMBL5346969 (J Med Chem, 2023)
≈ marks a conversion by molar mass, not a printed value. Calls of active or inactive are those of the source. No cut-off for these calls is given here.

Legend:
BT-549 = test: Antiproliferative activity against human BT-549 cells assessed as inhibition of cell viability incubated for 72 hrs by MTT assay; assay type: functional, cell-based; conditions: BT-549, 72 h
A549 = test: Antiproliferative activity against human A549 cells assessed as inhibition of cell viability at 1 uM incubated for 72 hrs by MTT assay; assay type: functional, cell-based
[1] = Selectivity ratio, ratio of IC50 for Induction of ferroptosis in human MDA-MB-231 cells assessed as reduction in cell viability in presence of ferroptosis inhibitor, ferrostatin-1 to IC50 for antiproliferative activity against human MDA-MB-231 cells; assay type: functional
[2] = Metabolic stability in human liver microsomes assessed as intrinsic clearance at 1 uM incubated upto 60 mins in presence of NADPH by LC-MS/MS analysis; assay type: ADME, Microsome; conditions: read-out: CLH
MDA-MB-231 [3] = test: Induction of ferroptosis in human MDA-MB-231 cells assessed as cell viability at 1 uM incubated for 72 hrs in presence of deferoxamine by MTT assay; assay type: functional, cell-based
[4] = Toxicity in immunodeficient BALB/c mouse assessed as bone marrow suppression by measuring RBC level at 20 mg/kg, ip for 14 days by whole blood analysis; assay type: organism-based, Erythrocyte; conditions: in vivo, 336 h, time 14 day
MDA-MB-231 [5] = test: Induction of ferroptosis in human MDA-MB-231 cells assessed as cell viability incubated for 72 hrs in presence of ferroptosis inhibitor, ferrostatin-1 by MTT assay; assay type: functional, cell-based; conditions: MDA-MB-231, 72 h
[6] = Toxicity in immunodeficient BALB/c mouse assessed as change in CREA level at 20 mg/kg, ip for 14 days by biochemical analysis; assay type: organism-based; conditions: in vivo, 336 h, time 14 day
[7] = Toxicity in immunodeficient BALB/c mouse assessed as change in LDH level at 20 mg/kg, ip for 14 days by biochemical analysis; assay type: organism-based; conditions: in vivo, 336 h, time 14 day
K562 = test: Antiproliferative activity against human K562 cells assessed as inhibition of cell viability at 1 uM incubated for 72 hrs by MTT assay; assay type: functional, cell-based
[8] = Toxicity in immunodeficient BALB/c mouse assessed as change in CK level at 20 mg/kg, ip for 14 days by biochemical analysis; assay type: organism-based; conditions: in vivo, 336 h, time 14 day
[9] = Toxicity in immunodeficient BALB/c mouse assessed as bone marrow suppression by measuring WBC level at 20 mg/kg, ip for 14 days by whole blood analysis; assay type: organism-based; conditions: in vivo, 336 h, time 14 day
[10] = Metabolic stability in human liver microsomes assessed as half life at 1 uM incubated upto 60 mins in presence of NADPH by LC-MS/MS analysis; assay type: ADME, Microsome
[11] = molecular target: T1, Phospholipid hydroperoxide glutathione peroxidase GPX4 (Homo sapiens, UniProt P36969); test: Inhibition of GPX4 (unknown origin) incubated for 1 hrs in presence of glutathione and glutathione reductase by microplate reader analysis
T1 sequence (P36969 whole entry): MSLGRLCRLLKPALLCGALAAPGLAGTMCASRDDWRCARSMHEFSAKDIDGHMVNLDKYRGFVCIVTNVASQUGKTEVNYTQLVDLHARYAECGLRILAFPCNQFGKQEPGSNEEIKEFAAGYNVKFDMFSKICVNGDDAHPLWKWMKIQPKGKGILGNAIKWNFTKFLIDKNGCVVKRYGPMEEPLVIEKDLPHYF

HepG2 = test: Antiproliferative activity against human HepG2 cells assessed as inhibition of cell viability at 1 uM incubated for 72 hrs by MTT assay; assay type: functional, cell-based
[12] = Solubility of compound at pH 7.4; assay type: physicochemical; conditions: buffer
MDA-MB-231 [13] = test: Inhibition of colony formation in human MDA-MB-231 cells at 5 to 20 nM incubated for 14 days by crystal violet staining based assay; assay type: functional, cell-based; conditions: dose 5-20 nM, time 14.0 day
MDA-MB-231 [14] = test: Induction of ferroptosis in human MDA-MB-231 cells assessed as cell viability at 1 uM incubated for 72 hrs in presence of apoptosis inhibitor, Z-VAD-FMK by MTT assay; assay type: functional, cell-based
MDA-MB-231 [15] = test: Induction of ferroptosis in human MDA-MB-231 cells with assessed as change in ACSL4 protein expression level at 5 to 20 nM incubated for 8 hrs in presence of ferroptosis inhibitor, ferrostatin-1 by Western blot analysis; assay type: functional, cell-based; conditions: dose 5-20 nM
[16] = Half life in rat at 10 mg/kg, ip and measured upto 24 hrs by LC-MS/MS analysis; assay type: ADME, organism-based; conditions: in vivo
MDA-MB-231 [17] = test: Induction of ferroptosis in siRNA mediated GPX4 knockdown human MDA-MB-231 cells with assessed as intracellular lipid peroxidase at 20 nM incubated for 8 hrs by C11-BODIPY-581/591 staining based confocal laser microscopy; assay type: functional, cell-based
[18] = molecular target: T2, Phospholipid hydroperoxide glutathione peroxidase GPX4 (Homo sapiens) (UniProt P36969); test: Binding affinity to GPX4 (unknown origin) at Cys66 residue assessed as change in mass of single charged b4+ ion at 100 uM incubated for 1.5 hrs by SDS-PAGE based LC-MS/MS analysis
T2 sequence (whole entry): T1 sequence (P36969 whole entry)

[19] = molecular target: T2, Phospholipid hydroperoxide glutathione peroxidase GPX4 (Homo sapiens); test: Binding affinity to GPX4 (unknown origin) at Cys66 residue assessed as change in mass of single charged b5+ ion at 100 uM incubated for 1.5 hrs by SDS-PAGE based LC-MS/MS analysis
MDA-MB-231 [20] = test: Induction of ferroptosis in human MDA-MB-231 cells with assessed as reduction in cell viability at 5 to 20 nM incubated for 4 to 10 hrs by MTT assay; assay type: functional, cell-based; conditions: dose 5-20 nM, time 4-10 hrs
[21] = molecular target: T2, Phospholipid hydroperoxide glutathione peroxidase GPX4 (Homo sapiens); test: Binding affinity to GPX4 (unknown origin) at Cys66 residue assessed as change in mass of single charged y6+ ion at 100 uM incubated for 1.5 hrs by SDS-PAGE based LC-MS/MS analysis
[22] = molecular target: T2, Phospholipid hydroperoxide glutathione peroxidase GPX4 (Homo sapiens); test: Binding affinity to GPX4 (35 to 48 residues) (unknown origin) at Sec46 residue assessed as increase in mass of single charged y3+ ion at 100 uM incubated for 1.5 hrs by SDS-PAGE based LC-MS/MS analysis
[23] = molecular target: T2, Phospholipid hydroperoxide glutathione peroxidase GPX4 (Homo sapiens); test: Binding affinity to GPX4 (unknown origin) at Cys66 residue assessed as change in mass of single charged y4+ ion at 100 uM incubated for 1.5 hrs by SDS-PAGE based LC-MS/MS analysis
[24] = molecular target: T2, Phospholipid hydroperoxide glutathione peroxidase GPX4 (Homo sapiens); test: Binding affinity to GPX4 (unknown origin) at Cys66 residue assessed as change in mass of single charged y5+ ion at 100 uM incubated for 1.5 hrs by SDS-PAGE based LC-MS/MS analysis
MDA-MB-231 [25] = test: Induction of ferroptosis in siRNA mediated GPX4 knockdown human MDA-MB-231 cells with assessed as change in GPX4 protein expression level at 20 nM incubated for 8 hrs by Western blot analysis; assay type: functional, cell-based
[26] = Acute toxicity in ICR mouse assessed as lethality at 200 to 488 mg/kg,ip and measured after 14 days; assay type: organism-based; conditions: in vivo, dose 200-488 mg/kg, time 14 day
MDA-MB-231 [27] = test: Induction of ferroptosis in siRNA mediated GPX4 knockdown human MDA-MB-231 cells with assessed as change in xCT protein expression level at 20 nM incubated for 8 hrs by Western blot analysis; assay type: functional, cell-based
[28] = AUCt in rat at 10 mg/kg, ip and measured upto 24 hrs by LC-MS/MS analysis; assay type: ADME, organism-based; parameters: dose 10 mg/kg, time < 24 hrs, route ip; conditions: in vivo
[29] = Cmax in rat at 10 mg/kg, ip and measured upto 24 hrs by LC-MS/MS analysis; assay type: ADME, organism-based; parameters: time < 24 hrs, dose 10 mg/kg, route ip; conditions: in vivo

Compound	IC50 (BT-549)	Activity (A549)	Ratio IC50 [1]	microsomal CLint at 1 µM [2]	Activity (MDA-MB-231 [3])	IC50 (MDA-MB-231 [5])	Activity [6]	Activity [7]	Activity (K562)	Activity [8]	half-life at 1 µM [10]	IC50 [11]	Activity (HepG2)	solubility [12]	inhibition (MDA-MB-231 [13])	Activity (MDA-MB-231 [14])	Activity (MDA-MB-231 [15])	further results
COc1cc(N(C(=O)CBr)c2ccc3c(c2)OCCO3)cc(OC)c1F	0.034 µM	inactive	218.8	1740 µL/min/mg	Active	1.75 µM	Toxic	Toxic	inactive	Toxic	0.79 min	0.13 µM	inactive	3.3 µg/mL (≈ 7.74 µM)	Dose-Dependent Effect	inactive	inactive	Activity [4]: Toxic; Activity [9]: Toxic
COc1cc(N(C(=O)CCl)c2ccc3c(c2)OCCO3)cc(OC)c1F	0.075 µM	inactive	249.5	416 µL/min/mg	Active	2.57 µM	Toxic	Toxic	inactive	Toxic	3.34 min	0.12 µM	inactive	3.63 µg/mL (≈ 9.51 µM)	Dose-Dependent Effect	inactive	inactive	t1/2 [16]: 114 min; Activity (MDA-MB-231 [17]): Active; Activity [18]: inactive; Activity [19]: inactive; Activity (MDA-MB-231 [20]): Dose-Dependent Effect; Activity [21]: inactive; Activity [22]: Active; Activity [23]: inactive; Activity [24]: inactive; Activity (MDA-MB-231 [25]): inactive; LD50 at 336 h [26]: 338 mg/kg; Activity (MDA-MB-231 [27]): inactive; AUCt [28]: 12100 ng·h/mL; Cmax [29]: 5205 ng/mL
